Experimental data reported in patent publication US20220249447A1, “CF3-, OCF3-, SCF3-, and SF5-Containing Antibacterial Agents” (Purdue Research Foundation, priority 2019, published 2022).
In brackets after ≈: the same amount, converted by molar mass. Where two headings read alike, the source gives them in different places.

Experiments:
[1] = tested on: C. difficile NR-13432 (isolate 6); test: MIC against C. difficile NR-13432 (isolate 6); type: cell-based
Procedure: (§1) Bacteria were cultured in cation-adjusted Mueller Hinton Broth (for strains in Tables 1-3) or Brain Heart Infusion broth (for Enterococcus faecium) or Tryptic Soy Broth (all other bacteria) in a 96-well plate at 37° C. for at least 20 hours. The MIC was classified as the lowest concentration where no visual growth of bacteria was observed. The minimum bactericidal concentration (MBC) was tested by spotting 4 μL from wells with no growth onto Tryptic Soy Agar (TSA) plates. Plates were incubated at 37° C. for at least 18 hours before recording the MBC.

[2] = tested on: S. aureus; test: MIC, broth microdilution, S. aureus; type: cell-based; conditions: Staphylococcus aureus
Procedure: as §1

[3] = tested on: C. difficile NR-32904 (P30); test: MIC against C. difficile NR-32904 (P30); type: cell-based
Procedure: as §1

[4] = tested on: C. difficile NR-32891 (P13); test: MIC against C. difficile NR-32891 (P13); type: cell-based
Procedure: as §1

[5] = tested on: C. difficile ATCC 43255; test: MIC against C. difficile ATCC 43255; type: cell-based
Procedure: as §1

[6] = tested on: C. difficile NR-32883 (P2); test: MIC against C. difficile NR-32883 (P2); type: cell-based
Procedure: as §1

[7] = tested on: MRSA ATCC 33592; test: MIC, broth microdilution, MRSA ATCC 33592; type: cell-based, methicillin-resistant S. aureus; conditions: Staphylococcus aureus
Procedure: All MRSA isolates were acquired from BEI Resources. The remaining bacteria were purchased from the American Type Culture Collection (ATCC).
as §1

[8] = tested on: C. difficile NR-32895 (P19); test: MIC against C. difficile NR-32895 (P19); type: cell-based
Procedure: as §1

[9] = tested on: VRE ATCC 51575; test: MIC, broth microdilution, VRE ATCC 51575; type: cell-based; conditions: Enterococcus
Procedure: as §1

[10] = tested on: L. monocytogenes ATCC 19115; test: MIC, broth microdilution, L. monocytogenes ATCC 19115; type: cell-based; conditions: Listeria monocytogenes, ATCC19115
Procedure: as §1

[11] = tested on: E. faecalis ATCC 29212; test: MIC, broth microdilution, E. faecalis ATCC 29212; type: cell-based; conditions: Enterococcus faecalis, ATCC29212
Procedure: as §1

[12] = tested on: C. difficile NR-13435 (isolate 9); test: MIC against C. difficile NR-13435 (isolate 9); type: cell-based
Procedure: as §1

[13] = tested on: Neisseria gonorrhea strain 181; test: MIC against Neisseria gonorrhea strain 181; type: cell-based
Procedure: as §1

[14] = tested on: C. difficile ATCC BAA 1801; test: MIC against C. difficile ATCC BAA 1801; type: cell-based
Procedure: as §1

[15] = tested on: MRSA USA300 cells; test: Time-kill assay; type: cell-based; conditions: for Δlog2 CFU/mL: MRSA USA300, 3× MIC or 6× MIC, up to 24 hours
Procedure: The time-kill analysis was performed as previously described^29. […] Aliquots (100 μL) were collected from each treatment after 0, 2, 4, 8, 12, and 24 hours of incubation at 37° C. and subsequently serially diluted in phosphate-buffered saline (PBS). Bacteria were then transferred to TSA plates and incubated at 37° C. for 18-20 hours before viable CFU/mL was determined (see FIG. 2).

[16] = Clostridioides difficile; read-out: MIC C. difficile NR-13432 (isolate 6)
[17] = Clostridioides difficile; read-out: MIC C. difficile NR-32904 (P30)
[18] = Clostridioides difficile; read-out: MIC C. difficile NR-32891 (P13)
[19] = Clostridioides difficile, ATCC43255; read-out: MIC C. difficile ATCC 43255
[20] = Clostridioides difficile; read-out: MIC C. difficile NR-32883 (P2)
[21] = Clostridioides difficile; read-out: MIC C. difficile NR-32895 (P19)
[22] = Clostridioides difficile; read-out: MIC C. difficile NR-13435 (isolate 9)
[23] = Clostridioides difficile, BAA1801; read-out: MIC C. difficile ATCC BAA 1801

Compound | MIC [1, 16] [µg/mL] | MIC [2] [µg/mL] | MIC [3, 17] [µg/mL] | MIC [4, 18] [µg/mL] | MIC [5, 19] [µg/mL] | MIC [6, 20] [µg/mL] | MIC [7] [µg/mL] | MIC [8, 21] [µg/mL] | MIC [9] [µg/mL] | MIC [10] [µg/mL] | MIC [11] [µg/mL] | MIC [12, 22] [µg/mL] | MIC [13] [µg/mL] | MIC [14, 23] [µg/mL] | other results
O=C(Nc1nnc(-c2ccc(C(F)(F)F)cc2)o1)c1ccc(SC(F)(F)F)cc1 [HSGN-203, N-(5-(4-(trifluoromethyl)phenyl)-1,3,4-oxadiazol-2-yl)-4-((trifluoromethyl)thio)benzamide] | 0.125 (≈ 0.288 µM) | 0.25 (≈ 0.577 µM) | 0.125 (≈ 0.288 µM) | 0.125 (≈ 0.288 µM) | 0.25 (≈ 0.577 µM) | 0.06 (≈ 0.138 µM) | 0.25 (≈ 0.577 µM) | 0.06 (≈ 0.138 µM) | 0.5 (≈ 1.15 µM) | 0.5 (≈ 1.15 µM) | 1 (≈ 2.31 µM) | 0.06 (≈ 0.138 µM) | 0.5 (≈ 1.15 µM) | 0.125 (≈ 0.288 µM) | –
O=C(Nc1nnc(-c2ccc(Cl)s2)o1)c1ccc(SC(F)(F)F)cc1 [HSGN-210, N-(5-(5-chlorothiophen-2-yl)-1,3,4-oxadiazol-2-yl)-4-((trifluoromethyl)thio)benzamide] | 0.015 (≈ 0.037 µM) | 0.25 (≈ 0.616 µM) | 0.06 (≈ 0.148 µM) | 0.06 (≈ 0.148 µM) | 0.007 (≈ 0.0172 µM) | 0.003 (≈ 0.00739 µM) | 0.25 (≈ 0.616 µM) | 0.03 (≈ 0.0739 µM) | 0.5 (≈ 1.23 µM) | 0.25 (≈ 0.616 µM) | 0.5 (≈ 1.23 µM) | 0.003 (≈ 0.00739 µM) | 0.5 (≈ 1.23 µM) | 0.06 (≈ 0.148 µM) | –
CC(=O)NC[C@H]1CN(c2ccc(N3CCOCC3)c(F)c2)C(=O)O1 [Linezolid, reference compound] | – | – | – | – | – | – | – | – | – | – | – | – | – | – | Bactericidal/Bacteriostatic [15]: Bacteriostatic; Δlog2 CFU/mL [15]: 1.7
O=C(Nc1nnc(-c2ccc(Cl)s2)o1)c1ccc(OC(F)(F)F)cc1 [HSGN-238, N-(5-(5-chlorothiophen-2-yl)-1,3,4-oxadiazol-2-yl)-4-(trifluoromethoxy)benzamide] | 0.03 (≈ 0.077 µM) | 0.25 (≈ 0.641 µM) | 0.015 (≈ 0.0385 µM) | 0.06 (≈ 0.154 µM) | 0.06 (≈ 0.154 µM) | 0.007 (≈ 0.018 µM) | 0.25 (≈ 0.641 µM) | 0.015 (≈ 0.0385 µM) | 1 (≈ 2.57 µM) | 0.5 (≈ 1.28 µM) | 1 (≈ 2.57 µM) | 0.015 (≈ 0.0385 µM) | 0.125 (≈ 0.321 µM) | 0.03 (≈ 0.077 µM) | –
CN[C@H](CC(C)C)C(=O)N[C@H]1C(=O)N[C@@H](CC(N)=O)C(=O)N[C@H]2C(=O)N[C@H]3C(=O)N[C@H](C(=O)N[C@H](C(=O)O)c4cc(O)cc(O)c4-c4cc3ccc4O)[C@H](O)c3ccc(c(Cl)c3)Oc3cc2cc(c3O[C@@H]2O[C@H](CO)[C@@H](O)[C@H](O)[C@H]2O[C@H]2C[C@](C)(N)[C@H](O)[C@H](C)O2)Oc2ccc(cc2Cl)[C@H]1O [Vancomycin, reference compound] | – | – | – | – | – | – | – | – | – | – | – | – | – | – | Bactericidal/Bacteriostatic [15]: Bactericidal; MIC ([1]; Clostridioides difficile, read-out: MIC C. difficile NR-13432 (isolate 6)): 0.25 µg/mL (≈ 0.173 µM); MIC ([3]; Clostridioides difficile, read-out: MIC C. difficile NR-32904 (P30)): 1 µg/mL (≈ 0.69 µM); MIC ([4]; Clostridioides difficile, read-out: MIC C. difficile NR-32891 (P13)): 0.5 µg/mL (≈ 0.345 µM); MIC ([5]; Clostridioides difficile, ATCC43255, read-out: MIC C. difficile ATCC 43255): 1 µg/mL (≈ 0.69 µM); MIC ([6]; Clostridioides difficile, read-out: MIC C. difficile NR-32883 (P2)): 0.5 µg/mL (≈ 0.345 µM); MIC ([8]; Clostridioides difficile, read-out: MIC C. difficile NR-32895 (P19)): 1 µg/mL (≈ 0.69 µM); MIC ([12]; Clostridioides difficile, read-out: MIC C. difficile NR-13435 (isolate 9)): 1 µg/mL (≈ 0.69 µM); MIC ([14]; Clostridioides difficile, BAA1801, read-out: MIC C. difficile ATCC BAA 1801): 1 µg/mL (≈ 0.69 µM)
O=C(Nc1nnc(-c2cc(Cl)cc(Cl)c2)o1)c1ccc(SC(F)(F)F)cc1 [HSGN-218, N-(5-(3,5-dichlorophenyl)-1,3,4-oxadiazol-2-yl)-4-((trifluoromethyl)thio)benzamide] | 0.03 (≈ 0.0691 µM) | 0.0625 (≈ 0.144 µM) | 0.007 (≈ 0.0161 µM) | 0.007 (≈ 0.0161 µM) | 0.015 (≈ 0.0345 µM) | 0.007 (≈ 0.0161 µM) | 0.0625 (≈ 0.144 µM) | 0.007 (≈ 0.0161 µM) | 0.25 (≈ 0.576 µM) | 0.125 (≈ 0.288 µM) | 0.25 (≈ 0.576 µM) | 0.003 (≈ 0.00691 µM) | 0.125 (≈ 0.288 µM) | 0.03 (≈ 0.0691 µM) | –
O=C(Nc1nnc(-c2cccc(Br)c2)o1)c1ccc(SC(F)(F)F)cc1 [HSGN-217, N-(5-(3-bromophenyl)-1,3,4-oxadiazol-2-yl)-4-((trifluoromethyl)thio)benzamide] | 0.06 (≈ 0.135 µM) | 0.5 (≈ 1.13 µM) | 0.125 (≈ 0.281 µM) | 0.125 (≈ 0.281 µM) | 0.06 (≈ 0.135 µM) | 0.06 (≈ 0.135 µM) | 0.5 (≈ 1.13 µM) | 0.125 (≈ 0.281 µM) | – | – | – | 0.06 (≈ 0.135 µM) | 0.25 (≈ 0.563 µM) | 0.06 (≈ 0.135 µM) | –
O=C(Nc1nnc(-c2ccc(Cl)cc2Cl)o1)c1ccc(SC(F)(F)F)cc1 [HSGN-248, N-(5-(2,4-dichlorophenyl)-1,3,4-oxadiazol-2-yl)-4-((trifluoromethyl)thio)benzamide] | – | 0.5 (≈ 1.15 µM) | – | – | – | – | 0.25 (≈ 0.576 µM) | – | – | – | – | – | > 128 | 0.015 (≈ 0.0345 µM) | –
O=C(Nc1nnc(-c2cccs2)o1)c1ccc(S(=O)(=O)C(F)(F)F)cc1 [HSGN-103] | – | – | – | – | – | – | – | – | – | – | – | – | – | – | Bactericidal/Bacteriostatic [15]: Bacteriostatic; Δlog2 CFU/mL [15]: 1.04; MIC C. difficile NR-13432 (isolate 6) [1]: 0.5 µg/mL (≈ 1.24 µM); MIC C. difficile NR-32904 (P30) [3]: 0.5 µg/mL (≈ 1.24 µM); MIC C. difficile NR-32891 (P13) [4]: 0.5 µg/mL (≈ 1.24 µM); MIC C. difficile ATCC 43255 [5]: 0.5 µg/mL (≈ 1.24 µM); MIC C. difficile NR-32883 (P2) [6]: 0.5 µg/mL (≈ 1.24 µM); MIC C. difficile NR-32895 (P19) [8]: 0.5 µg/mL (≈ 1.24 µM); MIC C. difficile NR-13435 (isolate 9) [12]: 0.5 µg/mL (≈ 1.24 µM); MIC C. difficile ATCC BAA 1801 [14]: 0.5 µg/mL (≈ 1.24 µM)
O=C(Nc1nnc(-c2cccc(Cl)c2)o1)c1ccc(SC(F)(F)F)nc1 [HSGN-247, N-(5-(3-chlorophenyl)-1,3,4-oxadiazol-2-yl)-6-((trifluoromethyl)thio)nicotinamide] | – | 0.5 (≈ 1.25 µM) | – | – | – | – | 0.5 (≈ 1.25 µM) | – | – | – | – | – | 0.125 (≈ 0.312 µM) | 0.015 (≈ 0.0374 µM) | –
O=C(Nc1nnc(-c2cccc(Cl)c2)o1)c1ccc(S(F)(F)(F)(F)F)cc1 [HSGN-259, N-(5-(3-chlorophenyl)-1,3,4-oxadiazol-2-yl)-4-(pentafluoro-k6-sulfaneyl)benzamide] | – | 0.0625 (≈ 0.147 µM) | – | – | – | – | 0.0313 (≈ 0.0735 µM) | – | – | – | – | – | 1 (≈ 2.35 µM) | < 0.003 | –
O=C(Nc1nnc(-c2ccc(F)cc2F)o1)c1ccc(SC(F)(F)F)cc1 [HSGN-219, N-(5-(2,4-difluorophenyl)-1,3,4-oxadiazol-2-yl)-4-((trifluoromethyl)thio)benzamide] | 0.03 (≈ 0.0748 µM) | 0.5 (≈ 1.25 µM) | 0.06 (≈ 0.15 µM) | 0.125 (≈ 0.311 µM) | 0.06 (≈ 0.15 µM) | 0.003 (≈ 0.00748 µM) | 0.5 (≈ 1.25 µM) | 0.06 (≈ 0.15 µM) | – | – | – | 0.007 (≈ 0.0174 µM) | 2 (≈ 4.98 µM) | 0.015 (≈ 0.0374 µM) | –
